Data published in article PMC3579217 (Journal of molecular biology, 2012).

Biological target: myrMA (myristoylated M-PMV matrix protein) (Mason-Pfizer monkey virus, UniProt P07567)
Assay: 1H/[…] HSQC NMR titration
Type: binding

Chain of myrMA (myristoylated M-PMV matrix protein) (P07567 2-118): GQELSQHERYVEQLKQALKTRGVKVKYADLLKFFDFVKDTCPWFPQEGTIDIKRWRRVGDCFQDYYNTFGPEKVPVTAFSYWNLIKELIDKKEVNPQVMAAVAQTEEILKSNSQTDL

CCCCCCCC(=O)OC[C@H](COP(=O)(O)O[C@@H]1[C@H](O)[C@H](O)[C@@H](OP(=O)(O)O)[C@H](OP(=O)(O)O)[C@H]1O)OC(=O)CCCCCCC [C8-PI(4,5)P2]
Kd: 92.8 ± 7.5 µM
